Measured values: patent US20140322348A1 (priority 2011, published 2014)

Assays:
[1] = tested on: grapevine downy mildew; test: Vineyard trial against grapevine downy mildew, foliar sprays; conditions: seven days after third application, rates TG 0.3%, potassium phosphite 0.4%, Liquid Copper 0.25%; for % infected leaf area: grape "Superior"
Experimental: The Timorex Gold or synthetic fungicidal composition were diluted prior to use. At the outset, pre-harvest plants were moderately infected with downy mildew. The crops studied were drip irrigated and fertilized according to known recommendations. Treatments were applied in a randomized complete block, with 4 replications per treatment. Plot size in each instance was 8 m length. Fungicidal treatment was applied using backpack sprayer equipped with a mist blower (STHIL 340 with endpiece 3) to spray a volume of 100 liter/dunam (1000 liter/ha) Foliar sprays were applied on days 1, 10 and 17. The plants were inspected on day 1 (prior to spraying) and days 11, 18 and 24. At the beginning of the experiment, for each group, 5 plant extremities having single leafs were marked. The percent of coverage of downy mildew on a five square cm area was estimated before marking in order to estimate the efficacy in curing infection and after marking to estimate the efficacy in preventing infection. To analyze the results, an arc-sin transformation was performed on the raw data, and analysis of variance (ANOVA) using the SAS GLM procedure was applied to the transformed data. The Tukey-Kramer Test was applied to determine whether differences between treatments were significant.

[2] = tested on: cucumber downy mildew; test: Greenhouse trial against cucumber downy mildew, foliar sprays; conditions: rates TG 0.5%, potassium phosphite 0.4%
Experimental: Combinations of TTO (supplied as Timorex Gold®, 23.8% TTO) and a synthetic fungicidal composition (supplied Canon® 50 from Luxembourg Industries Ltd., Israel, containing 780 g potassium phosphite (equivalent to 500 g phosphorous acid) per liter) were tested against cucumber downy mildew. Greenhouse-grown plants were drip irrigated and fertilized according to known recommendations for this crop. Treatments were applied in a randomized complete block, with 5 replications per treatment. Plot size in each instance was of 7 m length, containing 14 plants. The TTO or potassium phosphite composition were diluted prior to use. Fungicidal treatment was applied using backpack sprayer equipped with a mist blower (STHIL 340) to spray a at a rate of 350 cc/dunam. Three foliar sprays were applied at 11-13 day intervals. Disease severity was evaluated by determining the leaf area covered with downy mildew (disease severity) on each of 20 leaves randomly selected per each replicate. […] To analyze the results, an arc-sin transformation was performed on the raw data, and analysis of variance (ANOVA) using the SAS GLM procedure was applied to the transformed data. The Tukey-Kramer Test was applied to determine whether differences between treatments were significant.

## potassium phosphite
[1]; Curative
  % infected leaf area: 28.25%
  Efficacy (%): 25.2%
[1]; Protectant
  % infected leaf area: 14%
  Efficacy (%): 62.9%
[2]; 11 days after third application
  Severity % infected leaf area: 1.4%
[2]; Incidence, seven days after third application
  Efficacy (%): 74.4%
[2]; Seven days after third application
  Incidence % leaves infected: 23.7%
[2]; Severity, 11 days after third application
  Efficacy (%): 92.1%
